{"source": "patent US20220313700A1", "about": "“METHODS FOR TREATING MAP3K8 POSITIVE CANCERS” (CELL RESPONSE, INC., priority 2019, published 2022)", "key": {"H1975 NSCLC cell line": {"tested_on": "H1975 NSCLC cell line", "test": "Alamar blue proliferation assay, H1975", "assay_type": "cell-based", "conditions": "H1975, 72 hours, vs no drug, FIG. 14, 16, 17", "method": "(§1) The experiments have been performed in the following way. Three thousand cells in suspension in the medium normally used to grow these particular cells have been placed in an individual well within a 96 well tissue culture plate. Following cell attachment, the drugs have added to the wells to achieve the final indicated concentration. Subsequently, the cells were incubated for 72 hours in a standard tissue culture incubator at 37 degrees Celsius in an atmosphere containing 5% CO2. Following 66 hours, Alamar blue was added to the cells. Six hours later (72 hours from the addition of drug) the 96 well plate was placed in a fluorescence plate reader to measure for Alamar blue fluorescence (excitation wavelength of 540-570 nm (peak excitation is 560 nm)). Fluorescence emission was read at 580-610 nm (peak emission is 590 nm). This enabled the determination of the number of live cells present in each well. Wells containing each drug were compared to control wells where no drug was added. In each experiment, each condition was performed in multiple technical repeats of between four and eight times, by using between four and eight wells that were treated identically Each and every experiment was repeated at least three times on different days. In the data shown here, a representative example of each experiment is shown."}, "NSCLC H1975 cell line": {"tested_on": "NSCLC H1975 cell line", "test": "siRNA knockdown proliferation assay, H1975", "assay_type": "cell-based", "conditions": "H1975, 200 nM, FIG. 21B", "method": "as §1, with “Following cell attachment, the drugs have added to the wells to achieve the final indicated concentration.” left out, “days.” for “days. In the data shown here, a representative example of each experiment is shown.”"}, "[1]": {"tested_on": "NSCLC patients with EGFR mutations", "conditions": "cited from earlier work"}, "COT": {"biological_target": "COT (Homo sapiens, UniProt P41279)", "sequence (P41279 whole entry)": "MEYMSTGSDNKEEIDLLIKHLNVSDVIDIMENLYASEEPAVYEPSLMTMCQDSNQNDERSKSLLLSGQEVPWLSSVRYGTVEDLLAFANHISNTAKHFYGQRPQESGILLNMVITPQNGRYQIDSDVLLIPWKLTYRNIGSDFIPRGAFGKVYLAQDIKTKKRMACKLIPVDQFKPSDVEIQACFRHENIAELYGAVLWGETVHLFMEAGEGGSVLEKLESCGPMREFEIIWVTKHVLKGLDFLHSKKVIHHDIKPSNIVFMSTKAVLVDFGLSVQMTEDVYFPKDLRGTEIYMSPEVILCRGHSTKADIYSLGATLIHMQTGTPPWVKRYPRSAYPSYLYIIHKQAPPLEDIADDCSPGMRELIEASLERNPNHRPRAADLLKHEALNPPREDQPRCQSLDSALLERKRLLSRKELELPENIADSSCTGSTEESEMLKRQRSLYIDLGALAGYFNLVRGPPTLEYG", "conditions": "cited from earlier work"}, "[2]": {"tested_on": "four other related kinases", "conditions": "cited from earlier work"}, "intact blood cells": {"tested_on": "intact blood cells", "conditions": "cited from earlier work"}, "H23 NSCLC cell line": {"tested_on": "H23 NSCLC cell line", "test": "Alamar blue proliferation assay, H23", "assay_type": "cell-based", "conditions": "H23, 72 hours, vs no drug", "method": "as §1"}, "H358 NSCLC cell line": {"tested_on": "H358 NSCLC cell line", "test": "Alamar blue proliferation assay, H358", "assay_type": "cell-based", "conditions": "H358, 72 hours, vs no drug", "method": "as §1"}, "[3]": {"tested_on": "metastatic ROS1 positive non-small cell lung cancer (NSCLC) patients", "conditions": "cited from earlier work"}, "STE1 NSCLC cell line": {"tested_on": "STE1 NSCLC cell line", "test": "Alamar blue proliferation assay, STE1", "assay_type": "cell-based", "conditions": "STE1, 72 hours, FIG. 18", "method": "as §1"}, "[4]": {"tested_on": "IKKβ, JNK1α, p38, EGFR, CK1α, CDK2, JAK3, MST4, GSK3β", "conditions": "cited from earlier work"}, "A549 NSCLC cell line": {"tested_on": "A549 NSCLC cell line", "test": "Alamar blue proliferation assay, A549", "assay_type": "cell-based", "conditions": "A549, 72 hours", "method": "as §1"}, "DLD1 CRC cell line": {"tested_on": "DLD1 CRC cell line", "test": "Alamar blue proliferation assay, DLD1", "assay_type": "cell-based", "conditions": "DLD1, 72 hours; for inhibitory effect on proliferation (in words): FIG. 7, FIG. 9, FIG. 20", "method": "as §1, with “Following cell attachment, the drugs have added to the wells to achieve the final indicated concentration.” left out, “days.” for “days. In the data shown here, a representative example of each experiment is shown.”"}, "HCT15 CRC cell line": {"tested_on": "HCT15 CRC cell line", "test": "Alamar blue proliferation assay, HCT15", "assay_type": "cell-based", "conditions": "HCT15, 72 hours; for inhibition of proliferation: vs no drug, FIG. 8, FIG. 9; for inhibitory effect on proliferation (in words): FIG. 7, FIG. 9, FIG. 19, FIG. 20", "method": "as §1, with “Following cell attachment, the drugs have added to the wells to achieve the final indicated concentration.” left out, “days.” for “days. In the data shown here, a representative example of each experiment is shown.”"}, "[5]": {"tested_on": "BxPC3 pancreatic cancer cell line", "test": "Alamar blue proliferation assay, BxPC3", "assay_type": "cell-based", "conditions": "BxPC3, 72 hours, vs no drug", "method": "as §1"}, "[6]": {"tested_on": "HPAFII pancreatic cancer cell line", "test": "Alamar blue proliferation assay, HPAFII", "assay_type": "cell-based", "conditions": "72 hours, vs no drug", "method": "as §1"}, "[7]": {"tested_on": "LOVO colorectal cell line", "test": "Alamar blue proliferation assay, LOVO", "assay_type": "cell-based", "conditions": "72 hours, FIG. 7, FIG. 10", "method": "as §1, with “Following cell attachment, the drugs have added to the wells to achieve the final indicated concentration.” left out, “days.” for “days. In the data shown here, a representative example of each experiment is shown.”"}, "11-18 NSCLC cell line": {"tested_on": "11-18 NSCLC cell line", "test": "Alamar blue proliferation assay, 11-18", "assay_type": "cell-based", "conditions": "11-18, 72 hours, FIG. 14, FIG. 17", "method": "as §1"}, "ERK phosphorylation": {"tested_on": "ERK phosphorylation", "conditions": "cited from earlier work"}, "CRC cell line HT29": {"tested_on": "CRC cell line HT29", "test": "Alamar blue proliferation assay, HT29", "assay_type": "cell-based", "conditions": "HT29, 72 hours, monotherapy, FIG. 13", "method": "as §1"}}, "note": "Read-outs that look alike come from different tables or passages of the source."}
{"smiles": "COc1cc2c(Nc3ccc(Br)cc3F)ncnc2cc1OCC1CCN(C)CC1", "note": "[vandetanib]", "values": [{"measurement": "inhibition of proliferation", "setting": "H1975 NSCLC cell line", "result": 20, "unit": "%"}]}
{"smiles": "C=CC(=O)Nc1cc(Nc2nccc(-c3cn(C)c4ccccc34)n2)c(OC)cc1N(C)CCN(C)C", "note": "[Osimertinib]", "values": [{"measurement": "reduction of relative cell number", "setting": "NSCLC H1975 cell line", "result": "~50", "unit": "%"}, {"measurement": "progression-free survival, average", "setting": "[1]; osimertinib, or erlotinib/gefitinib/afatinib followed by osimertinib", "result": 18, "unit": "months"}, {"measurement": "patients who respond", "setting": "[1]; patients relapsed after first or second line EGFR inhibitors", "result": "Fifty percent"}]}
{"smiles": "NC(=O)c1cc2c(-c3cccc(-c4ccccc4)c3)cnc(N)c2s1", "note": "[FIG. 3B]", "values": [{"measurement": "IC50", "setting": "COT; thieno[2,3-c]pyridines, George et al. 2008, Cusack et al. 2009, read-out: COT IC50", "result": 170, "unit": "nM"}, {"measurement": "inhibition of four other related kinases relative to COT", "setting": "[2]", "result": "at least ten-fold less effective"}, {"measurement": "activity when added to intact blood cells", "setting": "intact blood cells", "result": "active"}]}
{"smiles": "C=CC(=O)N1CCN(c2nc(=O)n(-c3c(C)ccnc3C(C)C)c3nc(-c4c(O)cccc4F)c(F)cc23)[C@@H](C)C1", "note": "[AMG510, 6-fluoro-7-(2-fluoro-6-hydroxyphenyl)-1-[4-methyl-2-(propan-2-yl)pyridin-3-yl]-4-[(2S)-2-methyl-4-(prop-2-enoyl)piperazin-1-yl]-1H,2H-pyrido[2,3-d]pyrimidin-2-one]", "values": [{"measurement": "inhibition of proliferation", "setting": "H23 NSCLC cell line", "result": 50, "unit": "%"}, {"measurement": "inhibition of proliferation", "setting": "H358 NSCLC cell line", "result": 30, "unit": "%"}]}
{"smiles": "CN(C)C/C=C/C(=O)Nc1cc2c(Nc3ccc(F)c(Cl)c3)ncnc2cc1O[C@H]1CCOC1", "note": "[afatinib]", "values": [{"measurement": "inhibition of proliferation", "setting": "H1975 NSCLC cell line", "result": 35, "unit": "%"}]}
{"smiles": "CN1CCN(c2ccc(C(=O)Nc3n[nH]c4ccc(Cc5cc(F)cc(F)c5)cc34)c(NC3CCOCC3)c2)CC1", "note": "[entrectinib]", "values": [{"measurement": "duration of response", "setting": "[3]; in vivo", "result": 28.6, "unit": "months"}, {"measurement": "objective response rate (ORR)", "setting": "[3]; in vivo", "result": 78, "unit": "%"}]}
{"smiles": "C[C@H]1Oc2cc(cnc2N)-c2c(nn(C)c2C#N)CN(C)C(=O)c2ccc(F)cc21", "note": "[loraltinib]", "values": [{"measurement": "inhibition of proliferation", "setting": "STE1 NSCLC cell line", "result": 81, "unit": "%"}]}
{"smiles": "CCc1cc2c(cc1N1CCC(N3CCOCC3)CC1)C(C)(C)c1[nH]c3cc(C#N)ccc3c1C2=O", "note": "[alectinib]", "values": [{"measurement": "clinical benefit in ROS1 positive patients", "setting": "[3]; in vivo", "result": "do not possess clinical benefit"}]}
{"smiles": "c1ccc2[nH]c(-c3n[nH]c4ccccc34)nc2c1", "note": "[FIG. 2A without methyl group]", "values": [{"measurement": "IC50", "setting": "COT; Hu et al. 2011, indazoles with benzimidazole ring, read-out: COT (TPL2) IC50", "result": 109, "unit": "nM"}, {"measurement": "kinase selectivity against CDK2, JAK3, MST4, GSK3β", "setting": "[4]", "result": "less selectivity"}, {"measurement": "kinase selectivity against IKKβ, JNK1α, p38, EGFR, CK1α", "setting": "[4]", "result": "good kinase selectivity"}]}
{"smiles": "CC(C)Nc1cc(-c2c[nH]c(C(=O)N[C@H](CO)c3cccc(Cl)c3)c2)c(Cl)cn1", "note": "[Ulixertinib]", "values": [{"measurement": "inhibition of proliferation", "setting": "A549 NSCLC cell line; vs no drug, FIG. 6", "result": 10, "unit": "%"}, {"measurement": "inhibition of proliferation", "setting": "DLD1 CRC cell line; vs no drug, FIG. 8, FIG. 9", "result": "approximately 20%"}, {"measurement": "inhibition of proliferation", "setting": "HCT15 CRC cell line", "result": 20, "unit": "%"}, {"measurement": "inhibition of proliferation", "setting": "[5]", "result": 32, "unit": "%"}, {"measurement": "inhibition of proliferation", "setting": "[6]", "result": 15, "unit": "%"}]}
{"smiles": "CCN1CCC(n2cc(CNc3cc(Cl)c4ncc(C#N)c(Nc5ccc(F)c(Cl)c5)c4c3)nn2)CC1", "note": "[COT inhibitor, 3-Quinolinecarbonitrile, 8-chloro-4-[(3-chloro-4-fluorophenyl)amino]-6-[[[1-(1-ethyl-4-piperidinyl)-1H-1,2,3-triazol-4-yl]methyl]amino]-3-quinolinecarbonitrile]", "values": [{"measurement": "inhibitory effect on proliferation (in words)", "setting": "A549 NSCLC cell line; FIG. 5, FIG. 6", "result": "no effect"}, {"measurement": "inhibition of proliferation", "setting": "H23 NSCLC cell line", "result": "about 30%"}, {"measurement": "inhibition of proliferation", "setting": "H358 NSCLC cell line", "result": "about 30%"}, {"measurement": "inhibitory effect on proliferation (in words)", "setting": "[7]", "result": "variable, but significant, inhibitory effect"}, {"measurement": "inhibitory effect on proliferation (in words)", "setting": "DLD1 CRC cell line", "result": "variable, but significant, inhibitory effect"}, {"measurement": "inhibitory effect on proliferation (in words)", "setting": "HCT15 CRC cell line", "result": "variable, but significant, inhibitory effect"}, {"measurement": "inhibition of proliferation", "setting": "HCT15 CRC cell line", "result": 30, "unit": "%"}, {"measurement": "inhibition of proliferation", "setting": "H1975 NSCLC cell line", "result": 20, "unit": "%"}, {"measurement": "inhibitory effect on proliferation (in words)", "setting": "11-18 NSCLC cell line", "result": "higher level of inhibition"}]}
{"smiles": "COc1cc2c(Oc3ccc(NC(=O)C4(C(=O)Nc5ccc(F)cc5)CC4)cc3F)ccnc2cc1OCCCN1CCOCC1", "note": "[foretinib]", "values": [{"measurement": "clinical benefit in ROS1 positive patients", "setting": "[3]; in vivo", "result": "do not possess clinical benefit"}]}
{"smiles": "Cc1c(CNCCO)cncc1-c1ccc2[nH]nc(-c3nc4ccccc4[nH]3)c2c1", "note": "[FIG. 2B]", "values": [{"measurement": "inhibition of ERK phosphorylation", "setting": "ERK phosphorylation", "result": "inhibits ERK phosphorylation"}]}
{"smiles": "CN(C)C1CCN(C(=O)c2ccc(NC(=O)Nc3ccc(-c4nc(N5CCOCC5)nc(N5CCOCC5)n4)cc3)cc2)CC1", "note": "[Gedatolisib]", "values": [{"measurement": "inhibitory effect on proliferation (in words)", "setting": "DLD1 CRC cell line", "result": "little to no inhibition"}, {"measurement": "inhibitory effect on proliferation (in words)", "setting": "HCT15 CRC cell line", "result": "little to no inhibition"}, {"measurement": "inhibitory effect on proliferation (in words)", "setting": "CRC cell line HT29", "result": "significant inhibitory effect"}]}
{"smiles": "C[C@@H](Oc1cc(-c2cnn(C3CCNCC3)c2)cnc1N)c1c(Cl)ccc(F)c1Cl", "note": "[crizotinib]", "values": [{"measurement": "patients in whom treatment was initially effective", "setting": "[3]; clinical trials", "result": "70-80%"}]}
